Assay results as given in PMC8403742, “A single point mutation causes one-way alteration of pheromone receptor function in two Heliothis species” (iScience, 2021).
Entries after “also recorded” stand apart in the source; their conditions may differ.

Columns and labels:
HsubOR13/HsubOrco = HsubOR13/HsubOrco co-expressed in Xenopus oocytes, two-electrode voltage clamp; conditions: 10^-4 M solution
Description: (§1) Stock solutions (1 M) were dissolved in dimethyl sulfoxide (DMSO) and stored at −20°C. Before experiments, the stock solution was diluted in 1 × Ringer's buffer (96 mM NaCl, 2 mM KCl, 5 mM MgCl2, 0.8 mM CaCl2 and 5 mM HEPES, pH 7.6) to working concentration of 10^−4 M. 1 × Ringer's buffer containing 0.1% DMSO was used as a negative control.
(§2) The vectors contain the full ORF of all ORs were linearized to prepare the templates and the cRNA was synthesized with mMESSAGE mMACHINE SP6 (Ambion). Stage V to VII oocytes were treated with 2 mg/mL collagenase I (GIBCO, Carlsbad, CA) in 1 × Ca^2+-free washing buffer (96 mM NaCl, 2 mM KCl, 5 mM MgCl2 and 5 mM HEPES, pH 7.6) for about 1 h at room temperature. After being cultured overnight at 18°C, oocytes were then microinjected with 27.6 ng of Orco cRNA and 27.6 ng of ORs cRNA. Oocytes microinjected with 55.2 ng of Orco were used as negative controls. Injected oocytes were incubated for 4–7 days at 18°C in 1 × washing buffer (96 mM NaCl, 2 mM KCl, 5 mM MgCl2, 0.8 mM CaCl2 and 5 mM HEPES, pH 7.6) supplemented with 5% dialysed horse serum, 50 mg/mL tetracycline, 100 mg/mL streptomycin and 550 mg/mL sodium pyruvate.
(§3) Whole-cell currents were recorded with a two-electrode voltage clamp from the injected oocytes. Odorant-induced currents were recorded with an OC-725C oocyte clamp (Warner Instruments, Hamden, CT, USA) at a holding potential of −80 mV. […]

HsubOR14/HsubOrco = HsubOR14/HsubOrco co-expressed in Xenopus oocytes, two-electrode voltage clamp; conditions: 10^-4 M solution
Description: as §1, §2, §3

HsubOR16/HsubOrco = HsubOR16/HsubOrco co-expressed in Xenopus oocytes, two-electrode voltage clamp; conditions: 10^-4 M solution
Description: as §1, §2, §3

[1] = system: HvirOR6 mutants VM5, VM7, VM10, VM11, VM13, VM14, VM17, VM21, VM22, and VM30; assay type: cell-based, Heliothis virescens; conditions: 10^-4 M, 10 mutants VM5, VM7, VM10, VM11, VM13, VM14, VM17, VM21, VM22, VM30
[2] = target: VM321 (HvirOR6 L321V, VM6) (Heliothis virescens, UniProt Q8MMI0, L321V); experiment: cell-based; assay type: cell-based; conditions: for response of mutant receptor to compound: 10^-4 M, HvirOR6 L321V (VM6/VM321)
HvirOR6 mutant VM18 = assay type: cell-based, Heliothis virescens; conditions: 10^-4 M
HsubOR6/HsubOrco = HsubOR6/HsubOrco (Heliothis subflexa, UniProt A0A8E4MSQ8); experiment: HsubOR6/HsubOrco co-expressed in Xenopus oocytes, two-electrode voltage clamp; assay type: cell-based; conditions: for response of receptor to compound: 10^-4 M solution
[3] = system: chimeric OR6s (VSS, SVV, VVS, and SSV); assay type: cell-based, Heliothis virescens, Heliothis subflexa
SM321 (HsubOR6 V321L) = SM321 (HsubOR6 V321L) (Heliothis subflexa, UniProt A0A8E4MSQ8, V314L); experiment: cell-based; assay type: cell-based; conditions: for response of mutant receptor compared with HsubOR6: 10^-4 M, HsubOR6 V321L (SM321)
HvirOR6 mutant VM19 = assay type: cell-based, Heliothis virescens; conditions: 10^-4 M
[4] = system: HvirOR6 mutants VM1, VM2, VM3, VM4, VM12, VM15, VM16, VM20, VM23, VM24, VM29, and VM31; assay type: cell-based, Heliothis virescens; conditions: 10^-4 M, 12 mutants VM1, VM2, VM3, VM4, VM12, VM15, VM16, VM20, VM23, VM24, VM29, VM31
HvirOR6/HvirOrco = HvirOR6/HvirOrco (Heliothis virescens, UniProt Q8MMI0); experiment: HvirOR6/HvirOrco co-expressed in Xenopus oocytes, two-electrode voltage clamp; assay type: cell-based; conditions: for response of receptor to compound / response (inward current): HvirOR6/HvirOrco Xenopus oocytes; for response (inward current): concentration of 10^-4 M
[5] = system: HvirOR6 mutants VM9 and VM25; assay type: cell-based, Heliothis virescens; conditions: 10^-4 M
[6] = system: HvirOR6 mutants VM8, VM26, VM27, and VM28; assay type: cell-based, Heliothis virescens; conditions: 10^-4 M

Chain of HsubOR6/HsubOrco (A0A8E4MSQ8 1-424): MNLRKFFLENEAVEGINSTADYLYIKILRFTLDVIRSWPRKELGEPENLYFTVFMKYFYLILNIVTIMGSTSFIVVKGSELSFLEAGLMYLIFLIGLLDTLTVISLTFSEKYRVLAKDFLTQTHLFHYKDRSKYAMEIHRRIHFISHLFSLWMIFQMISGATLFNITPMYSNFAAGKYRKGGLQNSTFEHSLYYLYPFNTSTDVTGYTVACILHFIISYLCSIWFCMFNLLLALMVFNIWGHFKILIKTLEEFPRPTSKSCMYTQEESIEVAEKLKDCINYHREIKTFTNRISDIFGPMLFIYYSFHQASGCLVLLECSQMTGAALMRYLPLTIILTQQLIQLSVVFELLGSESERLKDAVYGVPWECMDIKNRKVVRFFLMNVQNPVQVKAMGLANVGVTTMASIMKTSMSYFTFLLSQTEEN

| Compound | response of HvirOR6 mutants compared with HvirOR6 [1] | response of mutant receptor to compound [2] | response of receptor to compound (HsubOR6/HsubOrco) | response of chimeric OR6s compared with original sequences [3] | response of mutant receptor compared with HsubOR6 (SM321 (HsubOR6 V321L)) | response of HvirOR6 mutants compared with HvirOR6 [4] | response of receptor to compound (HvirOR6/HvirOrco) | response (inward current) (HvirOR6/HvirOrco) | other results |
| --- | --- | --- | --- | --- | --- | --- | --- | --- | --- |
| CCCC/C=C\CCCCCCCCCC=O [Z11-16:Ald, (Z)-11-hexadecenal] | – | – | – | – | – | – | – | – | response of receptor to compound (HsubOR13/HsubOrco): specifically responded |
| CCCC/C=C\CCCCCCCCCCOC(C)=O [Z11-16:OAc, (Z)-11-hexadecenyl acetate] | – | – | – | – | – | – | – | – | response of receptor to compound (HsubOR14/HsubOrco): specifically activated |
| CCCC/C=C\CCCCCCCCCCO [Z11-16:OH, (Z)-11-hexadecen-1-ol] | – | – | – | – | – | – | – | – | response of receptor to compound (HsubOR16/HsubOrco): responded robustly |
| CCCCCC/C=C\CCCCCCCC=O [Z9-16:Ald, (Z)-9-hexadecenal] | did not have altered responses | retaining the response | responded; also recorded: specifically responsive | decreased significantly | increased | significant decrease in the response | responsive | 187.44 nA | EC50 [2]: 40.8 µM; response of HvirOR6 mutant compared with HvirOR6 (HvirOR6 mutant VM18): increased response; average response (inward current) (HsubOR6/HsubOrco; concentration of 10^-4 M): 184.04 nA; EC50 (HsubOR6/HsubOrco; holding potential -80 mV, read-out: EC50 (dose-response of inward current)): 46.3 µM; EC50 (SM321 (HsubOR6 V321L)): 20.4 µM; response of HvirOR6 mutant compared with HvirOR6 (HvirOR6 mutant VM19): decreased response; EC50 (HvirOR6/HvirOrco): 24.8 µM |
| CCCC/C=C\CCCCCCCC=O [Z9-14:Ald, (Z)-9-tetradecenal] | did not have altered responses | lost its response; also recorded: lost its ability to bind | little if any response; also recorded: lost its ability to recognize | decreased significantly | remained unchanged | significant decrease in the response | responsive | 1,541.96 nA | response of HvirOR6 mutants compared with HvirOR6 [5]: decreased responses; response of HvirOR6 mutants compared with HvirOR6 [6]: increased responses; response to Z9-14:Ald relative to that to Z9-16:Ald (HvirOR6/HvirOrco; 10^-4 M, HvirOR6): about 8.23 times |
